Here are results for 13 compounds from publication PMC9320749, “Synthesis, Molecular Docking Study, and Cytotoxic Activity against MCF Cells of New Thiazole–Thiophene Scaffolds” (Molecules, 2022).

SMILES strings stand for the structures. Where two headings read alike, the source gives them in different places.

For series [1], the system named is MCF-7. The note with it: for IC50: read-out: IC50 (μM) MCF-7, MCF-7 breast carcinoma cells, mean of three independent experiments, 72 h incubation.
Method: (§1) The results were used to plot a dose–response curve, from which the concentrations of the tested samples required to kill half of the cell population (IC50) were determined. In addition, cytotoxic activities were expressed as the mean IC50 calculated from three independent experiments.
(§2) The cytotoxic potentials of the newly synthesized compounds was carried out at the Regional Center for Mycology and Biotechnology at Al-Azhar University, Cairo, Egypt. Cells were purchased from the Egyptian Holding Company for Biological Products and Vaccines (VACSERA, Giza, Egypt) and kept in a tissue culture unit. Cells were grown in Roswell Park Memorial Institute (RPMI)-1640 medium supplemented with 10% heat-inactivated fetal bovine serum (FBS), 50 units/mL penicillin, and 50 mg/mL streptomycin, and maintained in a humidified atmosphere containing 5% CO2 [11, 25]. Cells were maintained as monolayer cultures using serial subculture. Cell culture reagents were obtained from Lonza (Basel, Switzerland). The anticancer activities of the rest of the compounds were evaluated in MCF-7 (breast cancer) cells. In addition, the sulforhodamine B (SRB) assay method, as described previously in [39, 40], was used to determine cytotoxicity. Exponentially growing cells were collected using 0.25% trypsin–EDTA and seeded in 96-well plates at 1000–2000 cells/well in RBMI-1640 supplemented medium. After 24 h, cells were incubated for 72 h with various concentrations of the compounds tested. Following 72 h of incubation, the cells were fixed with 10% trichloroacetic acid for 1 h at 4 °C. Wells were stained for 10 min at room temperature with 0.4% sulforhodamine B (SRBC) dissolved in 1% acetic acid. Plates were air-dried for 24 h, and the dye was solubilized with Tris–HCl for 5 min on a shaker at 1600 rpm. The optical density (OD) of each well was measured spectrophotometrically at 564 nm using an ELISA microplate reader (ChroMate-4300, Palm City, FL, USA). IC50 values were calculated using a Boltzmann sigmoidal concentration–response curve using non-linear regression fitting models (Graph Pad, Prism Version 9, GraphPad Software, San Diego, CA, USA).
The test system of series [2] is MCF-7. Briefly: cells. The note with it: Homo sapiens, MCF7, 72 h, read-out: IC50 (μM) MCF-7, MCF-7 breast carcinoma cells; mean of three independent experiments; 72 h incubation.
Method: as §1, §2
A further series can be described thus: in vitro. The note with it: rhesus monkey.

The term IC50 denotes the concentration that inhibits the measured activity by half. As to `C/C(=N\N=c1/sc(/N=N/c2ccccc2)c(C)n1N)c1cccs1` [4a], the “SI Values (CC50/IC50)” value in the series with MCF-7 [1] is recorded as 11.23. Further, the IC50 in the series with MCF-7 [2] was determined as 16.3 ± 1 µM. The CC50 at 72 h in “in vitro” worked out at 183 ± 21.3 µM.
With `C/C(=N\N=c1/sc(/N=N/c2ccc(C)cc2)c(C)n1N)c1cccs1` [4b], the IC50 with MCF-7 [2] was found to be 10.2 ± 0.8 µM. Further, the CC50 at 72 h in “in vitro” was found to be 176 ± 18.2 µM.
What is called melting point is the temperature of the solid-liquid transition. `C/C(=N\N=c1/sc(/N=N/c2ccc(Cl)cc2)c(C)n1N)c1cccs1` [4c] displayed a melting point of 205 to 207 °C. Further, the half-maximal inhibitory concentration (IC50) in the series with MCF-7 [2] came out at 19.7 ± 1.3 µM.
For the compound `C/C(=N\N=c1/sc(/N=N/c2ccc(Cl)cc2Cl)c(C)n1N)c1cccs1` [4d], the melting point lay within 227 to 229 °C. The IC50 with MCF-7 [2] came out at 19.8 ± 0.9 µM.
Consider `CC(=NN=C1SC(=NNc2ccc(C)cc2)C(=O)N1N)c1cccs1` [8a, 3-Amino-2-[(1-(thiophen-2-yl)ethylidene)hydrazineylidene]-5-(2-(p-tolyl)hydrazineylidene) thiazolidin-4-one], for which the “SI Values (CC50/IC50)” value in the series with MCF-7 [1] was 10.99. For the same compound, the IC50 in the series with MCF-7 [2] was 13.6 ± 0.9 µM. The CC50 at 72 h in the series “in vitro” worked out at 149 ± 15.9 µM.
In turn, `CC(=NN=C1SC(=NNc2ccc(Cl)cc2)C(=O)N1N)c1cccs1` [8b, 3-Amino-5-(2-(4-chlorophenyl)hydrazineylidene)-2-[(1-(thiophen-2-yl)ethylidene) hydrazineylidene]thiazolidin-4-one] had a melting point of 177 to 179 °C. Also, the IC50 in the series with MCF-7 [2] was found to be 23.7 ± 1.6 µM.
In the case of `C/C(=N\N=c1/scc(-c2ccccc2)n1N)c1cccs1` [11a], the melting point lay within 166 to 168 °C. Also, the 50% inhibitory concentration (IC50) with MCF-7 [2] is 21 ± 0.7 µM.
On to `C/C(=N\N=c1/scc(-c2ccc(C)cc2)n1N)c1cccs1` [11b], for which, in the series on MCF-7 [1], the “SI Values (CC50/IC50)” value is listed as 12.93. Moreover, in the series on MCF-7 [2], the IC50 turned out to be 17.9 ± 0.8 µM. The CC50 at 72 h in the series “in vitro” turned out to be 231 ± 25 µM.
Regarding `C/C(=N\N=c1/scc(-c2ccc(Cl)cc2)n1N)c1cccs1` [11c], the melting point fell in the range of 180 to 182 °C. Also, the IC50 in the series with MCF-7 [1] turned out to be 38.2 ± 1.4 µM. Also, in the series with MCF-7 [2], the IC50 is more than 38 µM.
For `C/C(=N\N=c1/scc(-c2ccc([N+](=O)[O-])cc2)n1N)c1cccs1` [11d], in that order: 194 to 196 °C, 54.8 ± 1.6 µM and more than 38 µM.
Consider `CC(=O)c1sc(=NN=C(C)c2cccs2)n(N)c1C` [13a, 1-[3-Amino-4-methyl-2-((1-(thiophen-2-yl)ethylidene)hydrazineylidene]-2,3-dihydrothiazol-5-yl)ethan-1-one], for which, in the series with MCF-7 [1], the “SI Values (CC50/IC50)” value is on record as 14.14. Also, in the series on MCF-7 [2], the IC50 was determined as 11.5 ± 0.8 µM. The same compound yielded a CC50 at 72 h in the series “in vitro” of 163 ± 19.1 µM.
Consider `CCOC(=O)c1s/c(=N\N=C(/C)c2cccs2)n(N)c1C` [13b], for which the “SI Values (CC50/IC50)” value in the series on MCF-7 [1] was found to be 8.29. The IC50 with MCF-7 [2] came out at 16.3 ± 1.4 µM. The CC50 at 72 h in the series “in vitro” was 135 ± 9.58 µM.
For the compound `N.N.[Cl][Pt][Cl]` [Cisplatin, cisplatin, reference compound], the IC50 with MCF-7 [1] was found to be 13.3 ± 0.61 µM.
